Measurements published in US20110045100A1, “Antimalarial Quinolines and Methods of Use Thereof” (GEORGETOWN UNIVERSITY, priority 2008, published 2011).

Key:
[1] = system: CQS (HB3, GCO3) and CQR (Dd2, FCB) strains of P. falciparum; experiment: SYBR Green I antiplasmodial assay, several CQS and CQR strains; assay type: cell-based, Plasmodium falciparum; details: Plasmodium falciparum; read-out: IC50 vs. CQR parasites
From the text: Bennett T. N.; Paguio, M.; Gligorijevic, B.; Seudieu, C.; Kosar, A. D.; Davidson, E.; Roepe, P. D. Novel, rapid, and inexpensive cell-based quantification of antimalarial drug efficacy. Antimicrob. Agents Chemother. 2004, 48, 1807-1810; Smilkstein, M.; Sriwilaijaroen, N.; Kelly, J. X.; Wilairat, P.; Riscoe, M. Simple and inexpensive fluorescence-based technique for high-throughput antimalarial drug screening. Antimicrob. Agents Chemother. 2004, 48, 1803-1806; and Johnson, J. D.; Dennull, R. A.; Gerena, L.; Lopez-Sanchez, M.; Roncal, N. E.; Waters, N.C. Assessment and continued validation of the malaria SYBR green I-based fluorescence assay for use in malaria drug screening. Antimicrob. Agents Chemother. 2007, 51, 1926-1933. […] Drake, N. L.; Creech, H. J.; Garman, J. A.; Haywood, S. T.; Peck, R. M.; van Hook, J. O.; Walton, E. Synthetic antimalrials. The preparation of certain 4-aminoquinolines. J. Am. Chem. Soc. […] Trans. R. Soc. Trop. Med. Hyg. […] J. Parasitol. 1983, 69, 97-105. The selectivity index provides a quantitative measure of the antimalarial activity against CQR strains relative to that against sensitive strains and thus indicates promising drug discovery leads. […] This can be combined with the introduction of a third basic amino function which should further favor accumulation of the drug within the acidic food vacuole of the parasite.
Bennett T. N.; Paguio, M.; Gligorijevic, B.; Seudieu, C.; Kosar, A. D.; Davidson, E.; Roepe, P. D. Novel, rapid, and inexpensive cell-based quantification of antimalarial drug efficacy. Antimicrob. Agents Chemother. 2004, 48, 1807-1810; Smilkstein, M.; Sriwilaijaroen, N.; Kelly, J. X.; Wilairat, P.; Riscoe, M. Simple and inexpensive fluorescence-based technique for high-throughput antimalarial drug screening. Antimicrob. Agents Chemother. 2004, 48, 1803-1806; and Johnson, J. D.; Dennull, R. A.; Gerena, L.; Lopez-Sanchez, M.; Roncal, N. E.; Waters, N.C. Assessment and continued validation of the malaria SYBR green I-based fluorescence assay for use in malaria drug screening. Antimicrob. Agents Chemother. 2007, 51, 1926-1933.
Drug activities were assessed and IC50 were quantified essentially as described previously. Delarue, S.; Girault, S.; Maes, L.; Debreu-Fontaine, M. A.; Labaeid, M.; Grellier, P.; Sergheraert, C. Synthesis and in vitro and in vivo antimalarial activity of new 4-anilinoquinolines. J. Med. Chem. 2001, 44, 2827-2833; and O'Neill, P. M.; Willock, D. J.; Hawley, S. R.; Bray, P. G.; Storr, R. C.; Ward, S. A.; Park, B. K. Synthesis, antimalarial activity, and molecular modeling of tebuquine analogues. J. Med. Chem. 1997, 40, 437-448.

[2] = pKa determination by acid/base titration; assay type: physicochemical; details: distilled water; measured; read-out: quinolyl N pKa
Procedure: SPARC pKa calculator is an online tool developed at the University of Georgia by S. W. Karickhoff, L. A. Carreira and S. H. Hilal. Experimental pKa were determined using an Accumet AB15 pH meter and a calomel electrode. 10 mM solutions of the drugs (as dibasic salts) were made in distilled H2O and titrated at room temperature (23.0±2.0° C.) using 0.1 M NaOH. Titration plots were generated and pKa's extracted via inflection points from the second derivative plots; (Δ^2pH/ΔV^2) vs. V, where V represents the volume of the titrant added and ΔV is the volume increment.

[3] = system: hemozoin (Hz) formation; experiment: Quantification of in vitro Hz formation inhibition; assay type: biochemical
Procedure: A stock solution of 5 mM hemin (Fluka) in 0.1M NaOH was prepared and stored as small aliquots at -20° C. Fresh aliquots were thawed daily to room temperature before use. Lecithin stock solutions were prepared by dissolving in distilled water to 10 mg/ml and similarly stored. 0.5 M propionate was used to buffer experiments in the pH range 5.2-5.6. The assay mixture (1 mL volumes) contained: 200 μL lecithin solution ([…] final) 20 μL hematin (100 μM final concentration) 20 μ[…] propionate buffer (X) μL drug (dependant on the concentration required 0-1000 μM). The addition sequence involved first adding the lecithin followed by heme, HCl, propionate buffer and finally the drug. Each sample was prepared in triplicate. Following addition of the reagents the samples were incubated at 37° C. with constant shaking for 18 h. After 18 h the assay was stopped by spinning the samples at 13,200 rpm for 10 minutes followed by carefully aspirating off the supernatant. The pellet was then resuspended in 50 mM bicarbonate buffer pH 9.0 (1 mL) and gently shaken at room temperature for 30 minutes to dissolve uncrystallized heme. The samples were then centrifuged as above and the supernatant removed. […] The samples were then dissolved in 0.1M NaOH to solubilize β-hematin to free heme and β-hematin formed was then quantified via heme absorbance at 402 nm. Calibration curves were prepared by titrating increasing amounts of heme in the same solvent vs. absorbance at 402 nm.

[4] = system: μ-oxo dimeric heme; experiment: Heme affinity measurement, μ-oxo dimeric heme; assay type: binding; details: aqueous solution
Procedure: 1.5 mL cuvettes containing freshly prepared samples of 4.8 μM heme were titrated with increasing concentrations (0-50 μM) of drug. Following each addition, the sample was mixed and heme absorbance then recorded at 402 nm. Control experiments were performed by titrating 4.8 μM heme with similar volumes of solvent and no drug present. To measure affinity for μ-oxo dimeric heme, the procedure was similar except hemin was first converted to dimeric form in mild alkaline solution, followed by titration to pH 7.5 using Hepes buffer. The absorbance peak analysis was done using Microsoft excel and Ka were extracted from the ΔAbs402 plots via Scatchard analysis using Microsoft Excel and Sigma plot 9.0.1 software.

Compound: CCN(CC)CCCCOc1ccnc2cc(Cl)ccc12 [compound 93, O-(7-Chloro-4-quinolyl)-4-(N,N-diethylamino)butanol]
- IC50 [1]: ~1 µM
- pKa [2]: 4.5
- fold higher IC50 for Hz inhibition relative to 98 [3]: roughly 5 fold
- ability to inhibit Hz formation vs. that measured for CQ and 8 ([3]; FIG. 26): significantly lower
- affinity (association constant Ka) vs. μ-oxo dimer [4]: quite similar
